Data taken from patent US9580426B2, “Compounds that expand hematopoietic stem cells” (Novartis AG, priority 2008, dated 2017).

Legend:
mPB and CB derived HSCs = experiment: Transplantation of cultured human CD34+ cells into NOD/SCID mice (engraftment); type: in vivo, human cells in NOD/SCID mice; conditions: HSCs cultured at 1 micromolar, mPB 4 days, CB 21 days
Protocol: Transplantation of human CD34^+ cells into NOD.CB 17-Prkdc^scid mice (NOD/SCID): To assess the in vivo repopulating capacity of CD34^+ cells and their cultured progeny, uncultured CD34^+ or the progenies of cultured CD34^+ cells after 4 days (mPB) or 21 days (CB) with vehicle or a test compound were injected intravenously via the retro-orbital route into sub-lethally irradiated (3.0 Gy) 8- to 10-week-old NOD/SCID (for mPB HSC experiments) or NOD/SCIDgc−/− (for CB HSC experiments) mice. To monitor engraftment blood was drawn weekly via the retro-orbital and treated with erythrocyte lysis solution (Qiagen, Valencia, Calif.) to remove red blood cells, washed with staining media, and analyzed by flow Cytometry. Engraftment was measured by detection of anti-human CD45^+ cells in the blood. The mice are sacrificed at 10 weeks post-transplantation; BM is collected from both femurs and tibiae. BM cells are washed in staining media and stained with anti-human antibodies. Following incubation, the suspension is treated with erythrocyte lysis solution (Qiagen, Valencia, Calif.) to remove red blood cells, washed with staining media, and analyzed by flow Cytometry, as described earlier.

CB CD34+ cells = experiment: Determination of CD34+ cell subsets by FACS; type: cell-based, human
Protocol: Surface Antigen Analysis: The cells are washed with staining media (Hanks balanced salt solution containing FBS (2%) and EDTA (2 mM)) and stained (at 4° C. for 30 minutes) with indicated primary conjugated antibodies. The cells are washed in the previously described buffer and analyzed using a BD LSR II flow cytometer (Becton Dickinson, San Jose, Calif.). The cells are passed at a rate of up to 1000 cells/second using 488-nm argon and 633-nm HeNe laser beams as the light source for excitation. Emission of 10^4 cells is measured using logarithmic amplification and analyzed using FlowJo software (TreeStar Inc. Ashland, Oreg.). Cells stained with primary conjugated isotype control antibodies are used to determine background fluorescence.
Determination of CD34^+ cell subsets: The percentages of CD34^+ cell subsets are determined from aliquots of the cell culture. Cells were stained with APC anti-Thy1.1, PerCP anti-CD34, PECy7 anti CD45RA, FITC anti CD38, and PE anti-CD133 for determination of CD34^+Thy1.1^+, CD34^+CD45RA^−, CD34^+CD38^−, CD133^+CD38^− and CD34^+CD133^+ cells. Antibodies to CD34, CD38, Thy1.1 and CD45RA were purchased from Becton Dickinson and antibodies to CD133 were purchased Miltenyi Biotec. FACS analysis results of these subsets are given as percentage of the total population. The absolute number of each population of cells in the culture is calculated from the total number of cells multiplied by the percentage of each population. Starting with CB CD34+ cell, after five weeks the total cell number in the cultures increased on average greater than 2-fold in the 4-(2-(2-(benzo[b]thiophen-3-yl)-9-isopropyl-9H-purin-6-ylamino)ethyl)phenol (compound 1, table 1; example 1) 1 micromolar treated cells compared to control cultures. More importantly, >50% of 4-(2-(2-(benzo[b]thiophen-3-yl)-9-isopropyl-9H-purin-6-ylamino)ethyl)phenol (compound 1, table 1; example 1) cultured cells were CD34^+ compared to <10% of vehicle cultured cells resulting in a greater than 10-fold expansion of CD34^+ cells compared to control and a greater than 10.000-fold expansion compared to input cells. In addition, the presence of 1 micromolar 4-(2-(2-(benzo[b]thiophen-3-yl)-9-isopropyl-9H-purin-6-ylamino)ethyl)phenol (compound 1, table 1; example 1) increased both the percentage and total numbers of the CD34^+ subpopulations, CD34^+CD45RA^−, CD34^+CD38^−, CD133^+CD38^−, and CD34^+CD133^+ resulting in a net expansion of greater than 30-fold for each subset.

mPB-derived CD34+ cell = experiment: 7 day culture with AHR antagonists, expansion of CD34+ cells; type: cell-based, human; conditions: 0.75 μM; 7 days
Protocol: To further explore the role of AHR signaling in HSCs two other AHR antagonists (alpha-naphthoflavone and CH-223191) were tested. Both compounds lead to dose dependent increases in the number of CD34^+ cells when cultured with mPB-derived CD34^+ cell for 7 days: inclusion of 1 μM CH223191 afforded a 2.2-fold expansion of CD34^+ cells; 0.75 μM α-naphthoflavone afforded a 1.9-fold expansion of CD34^+ cells while 0.75 μM Example 1 afforded a 3.4-fold expansion of total CD34^+ cells. […] Forty-eight hours following transduction, CD34+GFP^+ cells were purified by cell sorting and the levels of AHR were determined by qPCR. Both AHR targeting shRNAs led to decreases in AHR expression following transduction (81% with sh111 and 51% with sh242). These decreases were not seen in cells lacking GFP or in cells transduced with control virus.

CC(C)n1cnc2c(NCCc3ccc(O)cc3)nc(-c3csc4ccccc34)nc21 [Example 1, 4-(2-(2-(benzo[b]thiophen-3-yl)-9-isopropyl-9H-purin-6-ylamino)ethyl)phenol]
percentage of human cells 10 weeks after engraftment (mPB and CB derived HSCs): statistically significant increase | net expansion of each subset CD34+CD45RA-, CD34+CD38-, CD133+CD38-, CD34+CD133+ (CB CD34+ cells; 1 micromolar): greater than 30 fold | increase of total cell number compared to control cultures (CB CD34+ cells; 1 micromolar, after five weeks): greater than 2 fold | expansion of CD34+ cells compared to control (CB CD34+ cells; five weeks): greater than 10 fold | expansion of CD34+ cells compared to input cells (CB CD34+ cells; five weeks): greater than 10.000 fold | percentage of cultured cells that were CD34+ (CB CD34+ cells; five weeks, vehicle <10%): > 50% | expansion of CD34+ cells (mPB-derived CD34+ cell): 3.4 fold
